For orientation: inhibition means the change of the read-out against control, counted positive when it falls.

For the assay, the target named is T1, human B1R receptor (bradykinin 1 receptor) (Homo sapiens, UniProt P46663).
T1 construct: host or cells: CHO K1 cells (hB1R cells)
T1 sequence (P46663 1-353): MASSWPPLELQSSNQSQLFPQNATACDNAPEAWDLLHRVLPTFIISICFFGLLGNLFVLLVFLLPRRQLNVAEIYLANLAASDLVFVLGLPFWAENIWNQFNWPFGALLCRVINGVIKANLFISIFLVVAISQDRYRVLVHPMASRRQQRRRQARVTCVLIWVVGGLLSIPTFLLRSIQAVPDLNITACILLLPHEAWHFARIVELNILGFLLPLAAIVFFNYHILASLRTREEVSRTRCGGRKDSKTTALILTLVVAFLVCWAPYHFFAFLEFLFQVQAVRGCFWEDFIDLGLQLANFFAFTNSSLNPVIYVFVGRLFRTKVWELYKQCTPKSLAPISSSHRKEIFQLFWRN
Put plainly: FLIPR Ca2+ assay (Fluo-4) on CHO K1 cells stably transfected with the human B1R gene; % activation and % inhibition at 10 μM. Conditions: CHO-K1, test substance 10 μM; CHO K1 hB1R cells; Ca2+ inflow after 0.5 nM Lys-Des-Arg9-bradykinin; read-out: B1R antagonism, human [10 μM] % inhibition. Format: cell-based. The method, then: The agonistic or antagonistic action of substances can be quantified on the bradykinin receptor 1 (B1R) of the species human and rat with ectopically expressing cell lines (CHO K1 cells) and with the aid of a Ca^2+-sensitive dye (Fluo-4) using a fluorescent imaging plate reader (FLIPR). The indication in % activation is based on the Ca^2+ signal after addition of Lys-Des-Arg^9-bradykinin (0.5 nM) or Des-Arg^9-bradykinin (100 nM). Antagonists result in a suppression of the Ca^2+ influx following administration of the agonist. The % inhibition in comparison with the maximum achievable inhibition is indicated.
Functional Investigation on the Bradykinin 1 Receptor (B1R)
The agonistic or antagonistic action of substances can be determined on the bradykinin 1 receptor (B1R) of the human and rat species with the following assay. According to this assay, the Ca^2+ inflow through the channel is quantified with the aid of a Ca^2+-sensitive dyes (Fluo-4 type, Molecular Probes Europe BV, Leiden, The Netherlands) in a fluorescent imaging plate reader (FLIPR, Molecular Devices, Sunnyvale, USA).
Chinese Hamster Ovary cells (CHO K1 cells) which are stably transfected with the human B1R gene (hB1R cells, Euroscreen s.a., Gosselies, Belgium) or the B1R gene of the rat (rB1R cells, Axxam, Milan, Italy) are used. For functional investigations, these cells are plated-out on black 96-well plates with a clear base (BD Biosciences, Heidelberg, Germany) in a density of 20,000-25,000 cells/well. Overnight, the cells are incubated at 37° C. and 5% CO2 in culture medium (hB1R cells: Nutrient Mixture Ham's F12, Gibco Invitrogen GmbH, Karlsruhe, Germany; rB1R cells: D-MEM/F12, Gibco Invitrogen, Karlsruhe, Germany) with 10 vol. % FBS (foetal bovine serum, Gibco Invitrogen GmbH, Karlsruhe, Germany). On the following day, the cells are loaded with 2.13 μM Fluo-4 (Molecular Probes Europe BV, Leiden, The Netherlands) in HBSS buffer (Hank's buffered saline solution, Gibco Invitrogen GmbH, Karlsruhe, Germany) […] (Sigma-Aldrich, Taufkirchen, Germany) and 10 mM HEPES (Sigma-Aldrich, Taufkirchen, Germany) for 60 min at 37° C. The plates are subsequently washed 2× with HBSS buffer, and HBSS buffer which additionally contains 0.1% BSA (bovine serum albumin; Sigma-Aldrich, Taufkirchen, Germany), 5.6 mM glucose and 0.05% gelatine (Merck KGaA, Darmstadt, Germany) is added. After a further incubation of 20 minutes at room temperature, the plates are inserted into the FLIPR for Ca^2+ measurement. The Ca^2+-dependent fluorescence is measured here before and after addition of substances (λex=488 nm, λem=540 nm). The quantification is effected by measurement of the highest fluorescence intensity (FC, fluorescence counts) over time.
The FLIPR protocol comprises 2 additions of substance. Test substances (10 μM) are first pipetted on to the cells and the Ca^2+ inflow is compared with the control (hB1R: Lys-Des-Arg^9-bradykinin 0.5 nM; rB1R: Des-Arg^9-bradykinin 100 nM). The value in % activation based on the Ca^2+ signal after addition of Lys-Des-Arg^9-bradykinin (0.5 nM) or Des-Arg^9-bradykinin (100 nM) is obtained therefrom. After incubation for 10 minutes, 0.5 nM Lys-Des-Arg^9-bradykinin (hB1R) or 100 nM Des-Arg^9-bradykinin (rB1R) are applied and the inflow of Ca^2+ is likewise determined. Antagonists lead to a suppression of the Ca^2+ inflow. % inhibition compared with the maximum inhibition which can be achieved is calculated. The compounds show a good activity on the human and on the rat receptor. The following data were determined by way of example: […]
With `COc1ccc(S(=O)(=O)N2CCCCC2CCOCC(=O)N2CCC(O)(Cc3ccccc3)CC2)cc1` (stereo not drawn) [Example 29, 1-(4-benzyl-4-hydroxy-piperidin-1-yl)-2-{2-[1-(4-methoxy-phenylsulfonyl)-piperidin-2-yl]-ethoxy}-ethanone], the inhibition at 10 µM was found to be 7.66%. The value for `O=C(COC1CCN(S(=O)(=O)c2ccc(Cl)cc2)C1)N1CCC(O)(Cc2ccccc2)CC1` (stereo not drawn) [Example 31, 1-(4-benzyl-4-hydroxy-piperidin-1-yl)-2-[1-(4-chloro-phenylsulfonyl)-pyrrolidin-3-yloxy]-ethanone] was 6.81%. Take `O=C(COCCN1CCN(S(=O)(=O)c2ccccc2)CC1)N1CCC(O)(Cc2ccccc2)CC1` [Example 32, 2-[2-(4-phenylsulfonyl-piperazin-1-yl)-ethoxy]-1-(4-benzyl-4-hydroxy-piperidin-1-yl)-ethanone]: the inhibition at 10 µM was found to be 6.63%. The value for `COc1ccc(S(=O)(=O)N2CCCCC2COCC(=O)N2CCC(O)(Cc3ccccc3)CC2)cc1` (stereo not drawn) [Example 35, 1-(4-benzyl-4-hydroxy-piperidin-1-yl)-2-[1-(4-methoxy-phenylsulfonyl)-piperidin-2-ylmethoxy]-ethanone] was 5.08%; that for `O=C(COCC1CCCN1S(=O)(=O)c1ccc(Cl)c(Cl)c1)N1CCC(O)(c2ccccn2)CC1` (stereo not drawn) [Example 36, 2-[1-(3,4-dichloro-phenylsulfonyl)-pyrrolidin-2-ylmethoxy]-1-(4′-hydroxy-3′,4′,5′,6′-tetrahydro-2′H-[2,4′]bipyridinyl-1′-yl)-ethanone] was 3.64%; that for `O=C(COC1CCN(S(=O)(=O)c2ccccc2)CC1)N1CCC(O)(Cc2ccccc2)CC1` [Example 37, 2-(1-phenylsulfonyl-piperidin-4-yloxy)-1-(4-benzyl-4-hydroxy-piperidin-1-yl)-ethanone] was 3.4%. In the case of `CN(CCOCC(=O)N1CCC(O)(Cc2ccccc2)CC1)S(=O)(=O)c1cccc(C(F)(F)F)c1` [Example 38, N-{2-[2-(4-benzyl-4-hydroxy-piperidin-1-yl)-2-oxo-ethoxy]-ethyl}-N-methyl-3-trifluoromethyl-phenylsulfonamide] it was 3.28%. In the case of `CN(CCOCC(=O)N1CCC(O)(Cc2ccccc2)CC1)S(=O)(=O)c1ccccc1` [Example 39, N-{2-[2-(4-benzyl-4-hydroxy-piperidin-1-yl)-2-oxo-ethoxy]-ethyl}-N-methyl-phenylsulfonamide] it was 2.99%. As to `COc1cc(C)c(S(=O)(=O)N2CCC(CCOCC(=O)N3CCC(O)(c4ccccn4)CC3)CC2)c(C)c1C` [Example 45, 1-(4′-hydroxy-3′,4′,5′,6′-tetrahydro-2′H-[2,4′]bipyridinyl-1′-yl)-2-{2-[1-(4-methoxy-2,3,6-trimethyl-phenylsulfonyl)-piperidin-4-yl]-ethoxy}-ethanone], the inhibition at 10 µM was -2.48%. The value for `O=C(COC1CCN(S(=O)(=O)c2ccccc2)CC1)N1CCC(O)(c2cccnc2)CC1` [Example 46, 2-(1-phenylsulfonyl-piperidin-4-yloxy)-1-(4′-hydroxy-3′,4′,5′,6′-tetrahydro-2′H-[3,4′]bipyridinyl-1′-yl)-ethanone] was -3.51%. In the case of `COc1cc(C)c(S(=O)(=O)N2CCN(CCOCC(=O)N3CCC(O)(c4cccnc4)CC3)CC2)c(C)c1C` [Example 47, 1-(4′-hydroxy-3′,4′,5′,6′-tetrahydro-2′H-[3,4′]bipyridinyl-1′-yl)-2-{2-[4-(4-methoxy-2,3,6-trimethyl-phenylsulfonyl)-piperazin-1-yl]-ethoxy}-ethanone] it was -3.95%; in that of `COc1cc(C)c(S(=O)(=O)N2CCN(CCOCC(=O)N3CCC(O)(c4ccccn4)CC3)CC2)c(C)c1C` [Example 48, 1-(4′-hydroxy-3′,4′,5′,6′-tetrahydro-2′H-[2,4′]bipyridinyl-1′-yl)-2-{2-[4-(4-methoxy-2,3,6-trimethyl-phenylsulfonyl)-piperazin-1-yl]-ethoxy}-ethanone], -4.32%; in that of `O=C(COCC1CCCCN1S(=O)(=O)c1ccc(Cl)cc1)N1CCC(O)(Cc2ccccc2)CC1` (stereo not drawn) [Example 53, 1-(4-benzyl-4-hydroxy-piperidin-1-yl)-2-[1-(4-chloro-phenylsulfonyl)-piperidin-2-ylmethoxy]-ethanone], -11.4%.

`O=C(COC1CCN(S(=O)(=O)c2ccccc2)CC1)N1CCC(O)(c2ccccn2)CC1` [Example 54, 2-(1-phenylsulfonyl-piperidin-4-yloxy)-1-(4′-hydroxy-3′,4′,5′,6′-tetrahydro-2′H-[2,4′]bipyridinyl-1′-yl)-ethanone]: the inhibition at 10 µM was -13.1%. Turning to `COc1cc(C)c(S(=O)(=O)N2CCCC(OCC(=O)N3CCC(O)(c4ccccn4)CC3)C2)c(C)c1C` (stereo not drawn) [Example 55, 1-(4′-hydroxy-3′,4′,5′,6′-tetrahydro-2′H-[2,4′]bipyridinyl-1′-yl)-2-[1-(4-methoxy-2,3,6-trimethyl-phenylsulfonyl)-piperidin-3-yloxy]-ethanone], the inhibition at 10 µM is -13.2%.

Regarding `COc1ccc(S(=O)(=O)N2CCCC2COCC(=O)N2CCC(O)(Cc3ccccc3)CC2)cc1` (stereo not drawn) [Example 57, 1-(4-benzyl-4-hydroxy-piperidin-1-yl)-2-[1-(4-methoxy-phenylsulfonyl)-pyrrolidin-2-ylmethoxy]-ethanone], the inhibition at 10 µM was -16.2%.

Take `COc1ccc(S(=O)(=O)N2CCCCC2COCC(=O)N2CCC(O)(Cc3ccccc3)CC2)c(OC)c1` (stereo not drawn) [Example 60, 1-(4-benzyl-4-hydroxy-piperidin-1-yl)-2-[1-(2,4-dimethoxy-phenylsulfonyl)-piperidin-2-ylmethoxy]-ethanone]: the inhibition at 10 µM is -44%.

Regarding `COc1cc(C)c(S(=O)(=O)N(C)CCCC(=O)N2CCC(O)(c3cccnc3)CC2)c(C)c1` [Example 114, N-(4-(4-hydroxy-4-(pyridin-3-yl)piperidin-1-yl)-4-oxobutyl)-4-methoxy-N,2,6-trimethylphenylsulfonamide], the inhibition at 10 µM turned out to be 102%. As for `CN(CCCC(=O)N1CCC(O)(c2cccnc2)CC1)S(=O)(=O)c1ccc(Cl)cc1Cl` [Example 116, 2,4-dichloro-N-(4-(4-hydroxy-4-(pyridin-3-yl)piperidin-1-yl)-4-oxobutyl)-N-methylphenylsulfonamide], the inhibition at 10 µM is 91.2%. The value for `COc1cc(C)c(S(=O)(=O)N2CCCCC2COCCC(=O)N2CCC(O)(Cc3ccccc3)CC2)c(C)c1` (stereo not drawn) [Example 179, 1-(4-benzyl-4-hydroxypiperidin-1-yl)-3-((1-(4-methoxy-2,6-dimethylphenylsulfonyl)piperidin-2-yl)methoxy)propan-1-one] was 61.5%; that for `COc1cc(C)c(S(=O)(=O)N2CCCCC2COCCC(=O)N2CCC(O)(c3ccc(Cl)c(C(F)(F)F)c3)CC2)c(C)c1` (stereo not drawn) [Example 180, 1-(4-(4-chloro-3-(trifluoromethyl)phenyl)-4-hydroxypiperidin-1-yl)-3-((1-(4-methoxy-2,6-dimethylphenylsulfonyl)piperidin-2-yl)methoxy)propan-1-one] was 39.9%.

These data come from patent publication US8580965B2, “Substituted sulfonamide compounds” (Gruenenthal GmbH, priority 2006, dated 2013).
